# According to patent US20260078119A1, “DEGRADER COMPOUNDS AND USES THEREOF” (Bristol-Myers Squibb Company, priority 2024, published 2026):
# Legend:
# [1] = target: T1, FAK (Homo sapiens, UniProt Q05397); experiment: FAK-HiBiT Degradation Assay; type: cell-based; conditions: for DC50: JHH-4-FAK-HiBiT clone d01 cells, two hours incubation, 10-point dose response, 3-fold dilution starting at 1 μM, Nano-Glo HiBiT luminescence, read-out: FAK HiBiT EC50; for FAK HiBiT Ymin: lower limit of the four parameter fit (value A), Ymax derived using DMSO control, JHH-4-FAK-HiBiT cells, two hours
# T1 construct: homozygous knock-in of a HiBiT tag (Promega Corporation, Madison, WI) to the C-terminus of the FAK gene in its natural genomic locus; endogenous in cells; host or cells: JHH-4-FAK-HiBiT clone d01 (CRISPR-Cas9 knock-in at the endogenous locus)
# T1 sequence (Q05397 whole entry): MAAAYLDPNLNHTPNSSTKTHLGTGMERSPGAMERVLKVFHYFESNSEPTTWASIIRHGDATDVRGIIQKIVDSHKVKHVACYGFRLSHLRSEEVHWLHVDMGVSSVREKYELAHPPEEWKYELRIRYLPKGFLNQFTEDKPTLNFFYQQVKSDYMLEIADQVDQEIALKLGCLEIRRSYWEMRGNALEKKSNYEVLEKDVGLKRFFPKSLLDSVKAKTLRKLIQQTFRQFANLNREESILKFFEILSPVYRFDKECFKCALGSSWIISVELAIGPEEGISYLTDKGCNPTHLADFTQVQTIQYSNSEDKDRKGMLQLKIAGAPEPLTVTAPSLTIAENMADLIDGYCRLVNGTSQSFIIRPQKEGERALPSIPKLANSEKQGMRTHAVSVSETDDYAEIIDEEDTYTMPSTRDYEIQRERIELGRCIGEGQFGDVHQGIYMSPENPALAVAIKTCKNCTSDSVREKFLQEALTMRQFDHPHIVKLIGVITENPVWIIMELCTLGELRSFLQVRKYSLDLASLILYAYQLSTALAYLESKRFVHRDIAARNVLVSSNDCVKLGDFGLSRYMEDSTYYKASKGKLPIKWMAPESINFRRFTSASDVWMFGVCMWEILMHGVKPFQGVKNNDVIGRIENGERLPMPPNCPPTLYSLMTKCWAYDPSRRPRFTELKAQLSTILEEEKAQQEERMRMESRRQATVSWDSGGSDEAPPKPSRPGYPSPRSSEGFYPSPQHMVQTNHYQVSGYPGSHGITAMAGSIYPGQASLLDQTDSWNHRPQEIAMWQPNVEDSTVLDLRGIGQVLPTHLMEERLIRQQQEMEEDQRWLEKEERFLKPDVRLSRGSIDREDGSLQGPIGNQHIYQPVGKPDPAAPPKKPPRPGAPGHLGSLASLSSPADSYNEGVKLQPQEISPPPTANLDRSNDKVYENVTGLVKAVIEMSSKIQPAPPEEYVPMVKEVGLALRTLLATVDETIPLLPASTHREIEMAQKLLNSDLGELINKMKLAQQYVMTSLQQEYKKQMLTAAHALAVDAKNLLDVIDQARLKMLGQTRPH
# Method in brief: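 JHH-4 cells with homozygous CRISPR knock-in of C-terminal HiBiT on endogenous FAK, treated 2 h at 37 °C with compounds in 10-point 3-fold series from 1 μM. HiBiT lytic luminescence read; EC50 from four-parameter logistic fit, Ymax set by DMSO control, Ymin as lower fit limit.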
# [2] = test system: CAL-51 cells; experiment: CAL-51 Cell Proliferation Assay; type: cell-based; conditions: for EC50: Homo sapiens, 120 hours incubation, 10-point dose response, 4-fold dilutions starting at 10 μM, Cell-Titer-Glo, read-out: CAL-51 Prolif EC50; for CAL-51 Prolif Ymin: minimal percent of DMSO control observed in the concentrations tested (Ymin-obs), 120 hours
# Method in brief: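 Cells seeded at 350/well in RPMI complete medium onto 10-point, 4-fold compound dilutions from 10 μM (0.1% DMSO), in duplicate, and grown 120 h at 37 °C. CellTiter-Glo luminescence, blank-subtracted and normalised to DMSO, was fitted with a four-parameter logistic to give EC50; Ymin-obs is the lowest observed percent of DMSO control.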
DC50 [1] [nM],FAK HiBiT Ymin [1],SMILES,EC50 [2] [nM],CAL-51 Prolif Ymin [2]
24.4,32.32,"O=C1CCC(N2Cc3cc(Cn4ncc5c(-c6ncc(C(F)(F)F)cc6Cl)cc(NC6CC6)nc54)ccc3C2=O)C(=O)N1 (stereo not drawn) [Example 98, 3-[5-({4-[3-chloro-5-(trifluoromethyl)pyridin-2-yl]-6-(cyclopropyl-amino)-1H-pyrazolo[3,4-b]pyridin-1-yl}methyl)-1-oxo-2,3-dihydro-1H-isoindol-2-yl]piperidine-2,6-dione]",3.66,39.93
65.3,53.22,"C[C@]1(O)CCN(c2cc(-c3ccc(C#N)cc3F)c3cnn(Cc4ccc5c(c4)CN(C4CCC(=O)NC4=O)C5=O)c3n2)C1 (stereo partly drawn) [Example 115, 4-(1-{[2-(2,6-dioxopiperidin-3-yl)-1-oxo-2,3-dihydro-1H-isoindol-5-yl]methyl}-6-[(3S)-3-hydroxy-3-methylpyrrolidin-1-yl]-1H-pyrazolo[3,4-b]pyridin-4-yl)-3-fluorobenzonitrile]",118,59.97
2.23,5.82,"Cc1cc(Cl)cnc1-c1cc(N2CC(F)C2)nc2c1cnn2Cc1ccc2c(c1)CN([C@H]1CCC(=O)NC1=O)C2=O [Example 50, (3S)-3-(5-{[4-(5-chloro-3-methylpyridin-2-yl)-6-(3-fluoroazetidin-1-yl)-1H-pyrazolo[3,4-b]pyridin-1-yl]methyl}-1-oxo-2,3-dihydro-1H-isoindol-2-yl)piperidine-2,6-dione]",2.12,27.72
2.47,6.69,"CC(C)Oc1cnc(-c2cc(N3CC(F)C3)nc3c2cnn3Cc2ccc3c(c2)CN([C@H]2CCC(=O)NC2=O)C3=O)c(Cl)c1 [Example 54, (3S)-3-[5-({4-[3-chloro-5-(propan-2-yloxy)pyridin-2-yl]-6-(3-fluoroazetidin-1-yl)-1H-pyrazolo[3,4-b]pyridin-1-yl}methyl)-1-oxo-2,3-dihydro-1H-isoindol-2-yl]piperidine-2,6-dione]",0.73,25.81
≥ 1000,84.84,"COc1cc(F)cnc1-c1cc(N2CC(F)C2)nc2c1cnn2Cc1ccc2c(c1)CN(C1CCC(=O)NC1=O)C2=O (stereo not drawn) [Example 130, 3-(5-{[4-(5-fluoro-3-methoxypyridin-2-yl)-6-(3-fluoroazetidin-1-yl)-1H-pyrazolo[3,4-b]pyridin-1-yl]methyl}-1-oxo-2,3-dihydro-1H-isoindol-2-yl)piperidine-2,6-dione]",3900,76.29
8.56,10.79,"O=C1CCC(N2Cc3cc(Cn4ncc5c(-c6ncccc6C(F)(F)F)cc(N6CC(F)C6)nc54)ccc3C2=O)C(=O)N1 (stereo not drawn) [Example 79, 3-(5-{[6-(3-fluoroazetidin-1-yl)-4-[3-(trifluoromethyl)pyridin-2-yl]-1H-pyrazolo[3,4-b]pyridin-1-yl]methyl}-1-oxo-2,3-dihydro-1H-isoindol-2-yl)piperidine-2,6-dione]",3.22,23.53
14.1,8.03,"Cc1cc(C#N)cnc1-c1cc(N2CC(F)C2)nc2c1cnn2Cc1ccc2c(c1)CN(C1CCC(=O)NC1=O)C2=O (stereo not drawn) [Example 91, 6-(1-{[2-(2,6-dioxopiperidin-3-yl)-1-oxo-2,3-dihydro-1H-isoindol-5-yl]methyl}-6-(3-fluoroazetidin-1-yl)-1H-pyrazolo[3,4-b]pyridin-4-yl)-5-methylpyridine-3-carbonitrile]",7.78,24.52
1.12,7.78,"CCOc1ccc(-c2cc(N3CC(F)C3)nc3c2cnn3Cc2ccc3c(c2)CN([C@H]2CCC(=O)NC2=O)C3=O)c(C)c1 [Example 39, (3S)-3-(5-{[4-(4-ethoxy-2-methylphenyl)-6-(3-fluoroazetidin-1-yl)-1H-pyrazolo[3,4-b]pyridin-1-yl]methyl}-1-oxo-2,3-dihydro-1H-isoindol-2-yl)piperidine-2,6-dione]",0.82,28.13
0.29,8.97,"O=C1CCC(N2Cc3cc(Cn4ncc5c(-c6ncc(C(F)(F)F)cc6Cl)c(F)c(N6CC(F)C6)nc54)ccc3C2=O)C(=O)N1 (stereo not drawn) [Example 3, 3-[5-({4-[3-chloro-5-(trifluoromethyl)pyridin-2-yl]-5-fluoro-6-(3-fluoroazetidin-1-yl)-1H-pyrazolo[3,4-b]pyridin-1-yl}methyl)-1-oxo-2,3-dihydro-1H-isoindol-2-yl]piperidine-2,6-dione]",1.42,23.98
29.6,12.65,"C[C@]1(O)CCN(c2cc(-c3ncc(C(F)(F)F)cc3Cl)c3cnn(Cc4ccc5c(c4)CN([C@H]4CCC(=O)NC4=O)C5=O)c3n2)C1 [Example 102, (3S)-3-[5-({4-[3-chloro-5-(trifluoromethyl)pyridin-2-yl]-6-[(3S)-3-hydroxy-3-methylpyrrolidin-1-yl]-1H-pyrazolo[3,4-b]pyridin-1-yl}methyl)-1-oxo-2,3-dihydro-1H-isoindol-2-yl]piperidine-2,6-dione]",10.9,35.36
3.11,9.35,"C[C@]1(O)CCN(c2nc3c(cnn3Cc3ccc4c(c3)CN([C@H]3CCC(=O)NC3=O)C4=O)c(-c3ncc(C(F)(F)F)cc3Cl)c2F)C1 [Example 140, (3S)-3-[5-({4-[3-chloro-5-(trifluoromethyl)pyridin-2-yl]-5-fluoro-6-[(3S)-3-hydroxy-3-methylpyrrolidin-1-yl]-1H-pyrazolo[3,4-b]pyridin-1-yl}methyl)-1-oxo-2,3-dihydro-1H-isoindol-2-yl]piperidine-2,6-dione]",2.2,29.76
10.1,11.17,"Cc1cc(F)cnc1-c1cc(N2CC(F)C2)nc2c1cnn2Cc1ccc2c(c1)CN([C@H]1CCC(=O)NC1=O)C2=O [Example 144, (S)-3-(5-((4-(5-fluoro-3-methylpyridin-2-yl)-6-(3-fluoroazetidin-1-yl)-1H-pyrazolo[3,4-b]pyridin-1-yl)methyl)-1-oxoisoindolin-2-yl)piperidine-2,6-dione]",7.14,35.43
42.1,11.09,"O=C1CC[C@@H](N2Cc3c(ccc(Cn4ncc5c(-c6ncc(F)cc6Cl)cc(N6CC(F)C6)nc54)c3F)C2=O)C(=O)N1 (single isomer, unassigned) [Example 109]",10.2,35.33
0.76,8.92,"O=C1CCC(N2Cc3cc(Cn4ncc5c(-c6ncc(F)cc6Cl)c(F)c(N6CC(F)C6)nc54)ccc3C2=O)C(=O)N1 (stereo not drawn) [Example 31, 3-(5-{[4-(3-chloro-5-fluoropyridin-2-yl)-5-fluoro-6-(3-fluoroazetidin-1-yl)-1H-pyrazolo[3,4-b]pyridin-1-yl]methyl}-1-oxo-2,3-dihydro-1H-isoindol-2-yl)piperidine-2,6-dione]",3.89,34.80
0.98,8.36,"O=C1CCC(N2Cc3cc(Cn4ncc5c(-c6ncccc6Cl)c(F)c(N6CC(F)C6)nc54)ccc3C2=O)C(=O)N1 (stereo not drawn) [Example 36, 3-(5-{[4-(3-chloropyridin-2-yl)-5-fluoro-6-(3-fluoroazetidin-1-yl)-1H-pyrazolo[3,4-b]pyridin-1-yl]methyl}-1-oxo-2,3-dihydro-1H-isoindol-2-yl)piperidine-2,6-dione]",0.5,24.38
84.9,40.36,"CC(C)(O)c1cnc(-c2cc(N3CC(F)C3)nc3c2cnn3Cc2ccc3c(c2)CN([C@H]2CCC(=O)NC2=O)C3=O)c(Cl)c1 [Example 119, (3S)-3-[5-({4-[3-chloro-5-(2-hydroxypropan-2-yl)pyridin-2-yl]-6-(3-fluoroazetidin-1-yl)-1H-pyrazolo[3,4-b]pyridin-1-yl}methyl)-1-oxo-2,3-dihydro-1H-isoindol-2-yl]piperidine-2,6-dione]",27,59.05
≥ 1000,96.76,"CN1CCN(c2cc(-c3ncc(C(F)(F)F)cc3Cl)c3cnn(Cc4ccc5c(c4)CN([C@H]4CCC(=O)NC4=O)C5=O)c3n2)CC1 [Example 136, (3S)-3-[5-({4-[3-chloro-5-(trifluoromethyl)pyridin-2-yl]-6-(4-methylpiperazin-1-yl)-1H-pyrazolo[3,4-b]pyridin-1-yl}methyl)-1-oxo-2,3-dihydro-1H-isoindol-2-yl]piperidine-2,6-dione]",≥ 10000,95.61
1.8,17.06,"O=C1CC[C@H](N2Cc3cc(Cn4ncc5c(-c6ncc(Cl)cc6F)cc(N6CC(F)C6)nc54)ccc3C2=O)C(=O)N1 [Example 47, (3S)-3-(5-{[4-(5-chloro-3-fluoropyridin-2-yl)-6-(3-fluoroazetidin-1-yl)-1H-pyrazolo[3,4-b]pyridin-1-yl]methyl}-1-oxo-2,3-dihydro-1H-isoindol-2-yl)piperidine-2,6-dione]",1.96,39.85
